Test system: telomerase
Assay: Quantitative telomerase detection (telomeric repeat formation + PCR) in skin fibroblasts (donor four AG7308, donor one AG14271) with or without UVB
Assay type: cell-based, human
Protocol: Culture media: Cells were grown in Minimal Essential Medium supplemented with 10% fetal bovine serum, 2 mM L-glutamine, 2 mM Glutamax I, and 1× MEM non-essential amino acids solution. Cells were washed in the same medium, but without the fetal bovine serum. […] All cultures were incubated at 37° C. with 5% CO2 in a humidified chamber. Seeding of cells: […] Three wells were seeded per test condition or control. Experimental phase: On Day 3, wells were washed 1× with 2 mls medium, fed back 2 mls medium without fetal bovine serum and preincubated for 30-60 minutes before challenge with test or control conditions. […] The green tea polyphenols used were Premier Green Tea Extract Lot #10783, obtained from Pharma Cosmetix Research, LLC (Richmond, Va.). The Green Tea extract was measured into a stock solution of the above described Minimal Essential Media+1% Fetal Bovine Serum in a w/v ratio and then serially diluted into the testing concentrations with MEM+1% Fetal Bovine Serum. Three conditions were tested: […] UVB exposed and unexposed cells without test condition were used as controls. […] Cells from each test and control parameter were then trypsinized, collected by centrifugation, washed 3 times in PBS, and a cell count made using a hemacytometer. The final pellet was stored at −80° C. until processed further. UVB exposure: […] Cells were exposed from the bottom of the culture dish. The UVB dose delivered to the cells was adjusted for interference from the plastic in the culture dish. […] Extract from the cell pellets stored at −80 C post experimental phase was prepared for PCR according to the instructions in the Allied Biotech, Inc, Quantitative Telomerase Detection Kit. Briefly, pellets were thawed and immediately resuspended in 200 ul 1× Lysis Buffer per […]. The suspension was incubated on ice for 30 minutes, then microcentrifuged at 12,000×g for 30 minutes at 4° C. The supernatant was aliquoted and stored at −80° C. Detection of Telomerase: The extract from the cells allows for determination of telomerase activity by coupling the extract's ability to form telomeric repeats onto an oligonucleotide substrate and the resultant extended product are amplified using Polymerase Chain Reaction. These products are then visualized with SYBR green a fluorescent detection agent that emits green fluorescence when bound to the double stranded DNA product. […] The samples were run in a BioRad iCycler for 20 minutes at 25° C. to complete the telomerase reaction. The PCR initial activation step followed immediately and was of 10 minute duration at […]. […] The SYBR green detection occurred during the extension phase. Telomerase Detection Results: […] The raw analysis is provided in DATA TABLE 1. […] Culture media: Cells were grown in Minimal Essential Medium supplemented with 10% fetal bovine serum, 2 mM L-glutamine, 2 mM Glutamax I, and 1×MEM non-essential amino acids solution. Cells were washed in the same medium, but without the fetal bovine serum. […] All cultures were incubated at 37° C. with 5% CO2 in a humidified chamber. Seeding of cells: […] Three wells were seeded per test condition or control. Experimental phase: On Day 3, wells were washed 1× with 2 mls medium, fed back 2 mls medium without fetal bovine serum and preincubated for 30-60 minutes before challenge with test or control conditions. […] The 1% stock solution was also diluted with MEM+1% FBS until the testing concentrations were reached. Three conditions were tested: […] UVB exposed and unexposed cells without test condition were used as controls. […] Cells from each test and control parameter were then trypsinized, collected by centrifugation, washed 3 times in PBS, and a cell count made using a hemacytometer. The final pellet was stored at −80° C. until processed further. UVB exposure: […] Cells were exposed from the bottom of the culture dish. The UVB dose delivered to the cells was adjusted for interference from the plastic in the culture dish. […]

COC1=C(OC)C(=O)C(CCCCCCCCCCO)=C(C)C1=O [Idebenone, 6-(10-hydroxydecyl)-2,3-dimethoxy-5-methyl-1,4-benzoquin-one]
Level of telomerase (donor four UVB + agent 4 hr, compared to UVB Tx Control): −1.07
Level of telomerase (donor four UVB + agent 4 hr, compared to UnTx Control): 90.51
Level of telomerase (donor four UVB + agent Continuous, compared to UVB Tx Control): −1.00
Level of telomerase (donor four UVB + agent Continuous, compared to UnTx Control): 97.01
less telomerase activity than untreated cells (donor four cells given Idebenone): roughly 53%
telomerase activity (donor four cells given Idebenone and 1 MED UVB vs UVB stressed cells alone): −1.7 fold
telomerase activity (donor four cells given Idebenone and 1 MED UVB vs untreated cells): −2.4 fold
Level of telomerase (donor four idebenone Vs. person idebenone 4 hr): 1.46
telomerase activity (donor one cells given Idebenone and 1 MED UVB vs UVB treated age matched controls): −2.65 fold
telomerase activity (donor one cells given Idebenone and 1 MED UVB vs untreated controls): roughly −2.61 fold
telomerase activity (summary in words) (stressed (UVB) and unstressed cells): decreased level of telomerase activity
